Measured values from patent publication US20020137929A1, “1 - (3-heterocyclylphenyl) isothiourea, -isourea, -guanidine and -amidine herbicidal agents” (Intellectual Property Department, BASF Aktiengesellschaft, priority 1998, published 2002).

Experiments:
CYPIR (Rice Flatsedge) = assay: Postemergence weed control under flooded paddy conditions; type: in vivo, Cyperus iria; details: postemergence weeds, rated 3 to 4 weeks after treatment
How it was run: (§1)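 Flood-water application, about 0.0313–0.500 kg/ha a.i. in aqueous/acetone 50/50 v/v; water depth 1.5–3 cm throughout. Weeds 3–5 cm, rice 1.5–2.5 leaf. Greenhouse; 0–9 visual rating vs control at 3–4 wk.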

SETVI (Foxtail, Green) = assay: Postemergence herbicidal evaluation; type: in vivo, Setaria viridis; details: postemergence
How it was run: (§2)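 Visual 0–9 rating versus control (stand, vigor, malformation, size, chlorosis, overall appearance), taken four to five weeks post-spray. Two-week-old seedlings received roughly 0.0156–0.500 kg/ha active in acetone/water (50/50) with 0.5% TWEEN 20 via nozzle at 40 psi.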

CYPSE (Flatsedge) = assay: Preemergence weed control under flooded paddy conditions; type: in vivo, Cyperus serotinus; details: rated 3-4 weeks after treatment
How it was run: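 Visual injury scored 0-9 against control three to four weeks post-treatment, greenhouse-grown. Application: acetone/water (50/50) solutions dosed directly into flood water (1.5-3 cm over silt loam, planted top 0.5 cm), roughly 0.0313 to 0.500 kg/ha active ingredient.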

ECHCG (Barnyardgrass) = assay: Preemergence herbicidal evaluation; type: in vivo, Echinochloa crus-galli; details: rated 4-5 weeks after treatment
How it was run: (§3)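 Each species is sown separately in potting soil over roughly an inch of soil before any emergence. The soil surface then receives an aqueous acetone spray delivering about 0.0156 to 0.500 kg/ha of compound. After four to five weeks, injury is scored from 0 to 9 relative to a control.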

ABUTH (Velvetleaf) [1] = assay: Preemergence herbicidal evaluation; type: in vivo, Abutilon theophrasti; details: rated 4-5 weeks after treatment
How it was run: as §3

[2] = tested on: IPOHE (Morningglory, Ivyleaf); assay: Preemergence herbicidal evaluation; type: in vivo, Ipomoea hederacea; details: rated 4-5 weeks after treatment
How it was run: as §3

[3] = tested on: GLXMAW (Soybean, Williams); assay: Postemergence herbicidal evaluation; type: in vivo, Glycine max, (L.) Merr. cv Williams; details: postemergence
How it was run: as §2

ZEAMX (Corn, Field) = assay: Postemergence herbicidal evaluation; type: in vivo, Zea mays; details: postemergence
How it was run: as §2

[4] = tested on: ECHORC (Watergrass (Calif.)); assay: Postemergence weed control under flooded paddy conditions; type: in vivo, Echinochloa oryzoides; details: postemergence weeds, rated 3 to 4 weeks after treatment
How it was run: as §1

CASOB (Sicklepod) = assay: Preemergence herbicidal evaluation; type: in vivo, Cassia obtusifolia; details: rated 4-5 weeks after treatment
How it was run: as §3

AMBEL (Ragweed, Common) = assay: Preemergence herbicidal evaluation; type: in vivo, Ambrosia artemisifolia; details: rated 4-5 weeks after treatment
How it was run: as §3

[5] = tested on: IPOHE (Morningglory, Ivyleaf); assay: Postemergence herbicidal evaluation; type: in vivo, Ipomoea hederacea; details: postemergence
How it was run: as §2

ABUTH (Velvetleaf) [6] = assay: Postemergence herbicidal evaluation; type: in vivo, Abutilon theophrasti; details: postemergence
How it was run: as §2

[7] = tested on: ECHORC (Watergrass (Calif.)); assay: Preemergence weed control under flooded paddy conditions; type: in vivo, Echinochloa oryzoides; details: rated 3-4 weeks after treatment
How it was run: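 Herbicidal effect is scored visually on a 0-9 scale against an untreated control, three to four weeks after compounds are pipetted into the flood water (1.5 to 3 cm deep) over seeds planted in silt loam at 0.5 cm depth. Rates: about 0.0313 to 0.500 kg/ha.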

CCOC(=O)CN1C(=O)C(CC(=O)Nc2ccccc2)SC1=Nc1cc(-n2c(=O)cc(C(F)(F)F)n(C)c2=O)c(F)cc1Cl (stereo not drawn) [Compound 68, Ethyl 2-{{2-chloro-5-[3,6-dihydro-3-methyl-2,6-dioxo-4-(trifluoromethyl)-1(2H)-pyrimidinyl]-4-fluorophenyl}imino}-4-oxo-5-[(phenylcarbamoyl)-methyl]-3-thiazolidineacetate]
8.0: Herbicidal rating CYPIR (CYPIR (Rice Flatsedge); Rate 0.2500 kg/ha)
9.0: Preemergence herbicidal rating ABUTH (ABUTH (Velvetleaf) [1]; rate 0.2500 kg/ha) | IPOHE herbicidal rating ([5]; rate 0.0158 kg/ha) | IPOHE herbicidal rating ([5]; rate 0.0315 kg/ha) | IPOHE herbicidal rating ([5]; rate 0.0630 kg/ha) | ABUTH herbicidal rating (ABUTH (Velvetleaf) [6]; rate 0.0315 kg/ha)
2.0: SETVI herbicidal rating (SETVI (Foxtail, Green); rate 0.0158 kg/ha)
0.0: Herbicidal rating CYPIR (CYPIR (Rice Flatsedge); Rate 0.0313 kg/ha) | Herbicidal rating CYPIR (CYPIR (Rice Flatsedge); Rate 0.0625 kg/ha) | CYPSE herbicidal effect rating (CYPSE (Flatsedge); 0.0313 kg/ha) | CYPSE herbicidal effect rating (CYPSE (Flatsedge); 0.0625 kg/ha) | CYPSE herbicidal effect rating (CYPSE (Flatsedge); 0.1250 kg/ha) | CYPSE herbicidal effect rating (CYPSE (Flatsedge); 0.2500 kg/ha) | Preemergence herbicidal rating ECHCG (ECHCG (Barnyardgrass); rate 0.0156 kg/ha) | Preemergence herbicidal rating ECHCG (ECHCG (Barnyardgrass); rate 0.0313 kg/ha) | Preemergence herbicidal rating ECHCG (ECHCG (Barnyardgrass); rate 0.0625 kg/ha) | Preemergence herbicidal rating ECHCG (ECHCG (Barnyardgrass); rate 0.1250 kg/ha) | Preemergence herbicidal rating ABUTH (ABUTH (Velvetleaf) [1]; rate 0.0156 kg/ha) | Preemergence herbicidal rating IPOHE ([2]; rate 0.0156 kg/ha) | Preemergence herbicidal rating IPOHE ([2]; rate 0.0313 kg/ha) | Preemergence herbicidal rating IPOHE ([2]; rate 0.0625 kg/ha) | Preemergence herbicidal rating IPOHE ([2]; rate 0.1250 kg/ha) | Herbicidal rating ECHORC ([4]; Rate 0.0313 kg/ha) | Preemergence herbicidal rating CASOB (CASOB (Sicklepod); rate 0.0156 kg/ha) | Preemergence herbicidal rating CASOB (CASOB (Sicklepod); rate 0.0313 kg/ha) | Preemergence herbicidal rating CASOB (CASOB (Sicklepod); rate 0.0625 kg/ha) | Preemergence herbicidal rating CASOB (CASOB (Sicklepod); rate 0.1250 kg/ha) | Preemergence herbicidal rating AMBEL (AMBEL (Ragweed, Common); rate 0.0156 kg/ha) | Preemergence herbicidal rating AMBEL (AMBEL (Ragweed, Common); rate 0.0313 kg/ha) | Preemergence herbicidal rating AMBEL (AMBEL (Ragweed, Common); rate 0.0625 kg/ha) | ECHORC herbicidal effect rating ([7]; 0.0313 kg/ha)
7.0: GLXMAW herbicidal rating ([3]; rate 0.0630 kg/ha) | Herbicidal rating ECHORC ([4]; Rate 0.1250 kg/ha) | Herbicidal rating ECHORC ([4]; Rate 0.2500 kg/ha) | Preemergence herbicidal rating AMBEL (AMBEL (Ragweed, Common); rate 0.2500 kg/ha) | ABUTH herbicidal rating (ABUTH (Velvetleaf) [6]; rate 0.0158 kg/ha) | ABUTH herbicidal rating (ABUTH (Velvetleaf) [6]; rate 0.0630 kg/ha) | ECHORC herbicidal effect rating ([7]; 0.1250 kg/ha) | ECHORC herbicidal effect rating ([7]; 0.2500 kg/ha)
1.0: Preemergence herbicidal rating ECHCG (ECHCG (Barnyardgrass); rate 0.2500 kg/ha) | Preemergence herbicidal rating ABUTH (ABUTH (Velvetleaf) [1]; rate 0.0313 kg/ha) | Preemergence herbicidal rating ABUTH (ABUTH (Velvetleaf) [1]; rate 0.0625 kg/ha) | Preemergence herbicidal rating CASOB (CASOB (Sicklepod); rate 0.2500 kg/ha) | Preemergence herbicidal rating AMBEL (AMBEL (Ragweed, Common); rate 0.1250 kg/ha)
6.0: SETVI herbicidal rating (SETVI (Foxtail, Green); rate 0.0315 kg/ha) | SETVI herbicidal rating (SETVI (Foxtail, Green); rate 0.0630 kg/ha) | Preemergence herbicidal rating IPOHE ([2]; rate 0.2500 kg/ha) | GLXMAW herbicidal rating ([3]; rate 0.0158 kg/ha)
5.0: Herbicidal rating CYPIR (CYPIR (Rice Flatsedge); Rate 0.1250 kg/ha) | Preemergence herbicidal rating ABUTH (ABUTH (Velvetleaf) [1]; rate 0.1250 kg/ha) | ZEAMX herbicidal rating (ZEAMX (Corn, Field); rate 0.0158 kg/ha) | ZEAMX herbicidal rating (ZEAMX (Corn, Field); rate 0.0315 kg/ha) | Herbicidal rating ECHORC ([4]; Rate 0.0625 kg/ha) | ECHORC herbicidal effect rating ([7]; 0.0625 kg/ha)
5.5: GLXMAW herbicidal rating ([3]; rate 0.0315 kg/ha) | ZEAMX herbicidal rating (ZEAMX (Corn, Field); rate 0.0630 kg/ha)

C[C@H](C(=O)O)N1C(=O)CSC1=Nc1cc(-n2c(=O)cc(C(F)(F)F)n(C)c2=O)c(F)cc1Cl [Compound 70, 2-{{2-Chloro-5-[3,6-dihydro-3-methyl-2,6-dioxo-4-(trifluoromethyl)-1(2H)-pyrimidinyl]-4-fluoro-phenyl}imino}-α-methyl-4-oxo-3-thiazolidineacetic acid, D-]
1.0: SETVI herbicidal rating (SETVI (Foxtail, Green); rate 0.0158 kg/ha) | Preemergence herbicidal rating ECHCG (ECHCG (Barnyardgrass); rate 0.1250 kg/ha) | Preemergence herbicidal rating ECHCG (ECHCG (Barnyardgrass); rate 0.2500 kg/ha) | Preemergence herbicidal rating IPOHE ([2]; rate 0.1250 kg/ha) | Preemergence herbicidal rating CASOB (CASOB (Sicklepod); rate 0.1250 kg/ha) | ABUTH herbicidal rating (ABUTH (Velvetleaf) [6]; rate 0.0158 kg/ha)
5.5: GLXMAW herbicidal rating ([3]; rate 0.0315 kg/ha) | ZEAMX herbicidal rating (ZEAMX (Corn, Field); rate 0.0315 kg/ha)
0.0: Herbicidal rating CYPIR (CYPIR (Rice Flatsedge); Rate 0.0313 kg/ha) | CYPSE herbicidal effect rating (CYPSE (Flatsedge); 0.0313 kg/ha) | CYPSE herbicidal effect rating (CYPSE (Flatsedge); 0.0625 kg/ha) | CYPSE herbicidal effect rating (CYPSE (Flatsedge); 0.1250 kg/ha) | Preemergence herbicidal rating ECHCG (ECHCG (Barnyardgrass); rate 0.0156 kg/ha) | Preemergence herbicidal rating ECHCG (ECHCG (Barnyardgrass); rate 0.0313 kg/ha) | Preemergence herbicidal rating ECHCG (ECHCG (Barnyardgrass); rate 0.0625 kg/ha) | Preemergence herbicidal rating ABUTH (ABUTH (Velvetleaf) [1]; rate 0.0156 kg/ha) | Preemergence herbicidal rating ABUTH (ABUTH (Velvetleaf) [1]; rate 0.0313 kg/ha) | Preemergence herbicidal rating IPOHE ([2]; rate 0.0156 kg/ha) | Preemergence herbicidal rating IPOHE ([2]; rate 0.0313 kg/ha) | Preemergence herbicidal rating IPOHE ([2]; rate 0.0625 kg/ha) | Herbicidal rating ECHORC ([4]; Rate 0.0313 kg/ha) | Herbicidal rating ECHORC ([4]; Rate 0.0625 kg/ha) | Herbicidal rating ECHORC ([4]; Rate 0.1250 kg/ha) | Herbicidal rating ECHORC ([4]; Rate 0.2500 kg/ha) | Preemergence herbicidal rating CASOB (CASOB (Sicklepod); rate 0.0156 kg/ha) | Preemergence herbicidal rating CASOB (CASOB (Sicklepod); rate 0.0313 kg/ha) | Preemergence herbicidal rating CASOB (CASOB (Sicklepod); rate 0.0625 kg/ha) | Preemergence herbicidal rating CASOB (CASOB (Sicklepod); rate 0.2500 kg/ha) | Preemergence herbicidal rating AMBEL (AMBEL (Ragweed, Common); rate 0.0156 kg/ha) | Preemergence herbicidal rating AMBEL (AMBEL (Ragweed, Common); rate 0.0313 kg/ha) | Preemergence herbicidal rating AMBEL (AMBEL (Ragweed, Common); rate 0.0625 kg/ha) | ECHORC herbicidal effect rating ([7]; 0.0313 kg/ha) | ECHORC herbicidal effect rating ([7]; 0.0625 kg/ha) | ECHORC herbicidal effect rating ([7]; 0.1250 kg/ha) | ECHORC herbicidal effect rating ([7]; 0.2500 kg/ha)
6.0: Preemergence herbicidal rating ABUTH (ABUTH (Velvetleaf) [1]; rate 0.1250 kg/ha) | ABUTH herbicidal rating (ABUTH (Velvetleaf) [6]; rate 0.0315 kg/ha)
9.0: SETVI herbicidal rating (SETVI (Foxtail, Green); rate 0.0630 kg/ha) | Preemergence herbicidal rating ABUTH (ABUTH (Velvetleaf) [1]; rate 0.2500 kg/ha) | Preemergence herbicidal rating AMBEL (AMBEL (Ragweed, Common); rate 0.2500 kg/ha) | IPOHE herbicidal rating ([5]; rate 0.0158 kg/ha) | IPOHE herbicidal rating ([5]; rate 0.0315 kg/ha) | IPOHE herbicidal rating ([5]; rate 0.0630 kg/ha) | ABUTH herbicidal rating (ABUTH (Velvetleaf) [6]; rate 0.0630 kg/ha)
4.0: ZEAMX herbicidal rating (ZEAMX (Corn, Field); rate 0.0158 kg/ha)
7.0: GLXMAW herbicidal rating ([3]; rate 0.0630 kg/ha) | ZEAMX herbicidal rating (ZEAMX (Corn, Field); rate 0.0630 kg/ha)
4.5: GLXMAW herbicidal rating ([3]; rate 0.0158 kg/ha)
5.0: Preemergence herbicidal rating IPOHE ([2]; rate 0.2500 kg/ha)
2.0: Herbicidal rating CYPIR (CYPIR (Rice Flatsedge); Rate 0.0625 kg/ha) | Herbicidal rating CYPIR (CYPIR (Rice Flatsedge); Rate 0.1250 kg/ha) | Herbicidal rating CYPIR (CYPIR (Rice Flatsedge); Rate 0.2500 kg/ha) | SETVI herbicidal rating (SETVI (Foxtail, Green); rate 0.0315 kg/ha)
3.0: CYPSE herbicidal effect rating (CYPSE (Flatsedge); 0.2500 kg/ha) | Preemergence herbicidal rating AMBEL (AMBEL (Ragweed, Common); rate 0.1250 kg/ha)
